Read-outs that look alike come from different tables or passages of the source.
Key:
[1] = biological target: signal sequence FLAG (ssf)-KOR, murine (kappa opioid receptor) (murine) (UniProt P33534); experiment: TIR-FM recruitment of a fluorescent cytosolic protein to the plasma membrane of living cells; HEK293 cells co-expressing the fluorescent cytosolic protein and the receptor; 37 C, HBS imaging solution pH 7.4; agonists added in rising concentrations (1 nM - 10 uM) by bath application or perfusion: DynA, U69, U50, etorphine for KOR; DAMGO, etorphine, morphine, PZM21, MP for MOR; reversed by the antagonists 5'GNTI or naloxone; also with Cmpd101 (30 uM)
Chain of UniProt P33534 (P33534 whole entry, the tested form may be a part): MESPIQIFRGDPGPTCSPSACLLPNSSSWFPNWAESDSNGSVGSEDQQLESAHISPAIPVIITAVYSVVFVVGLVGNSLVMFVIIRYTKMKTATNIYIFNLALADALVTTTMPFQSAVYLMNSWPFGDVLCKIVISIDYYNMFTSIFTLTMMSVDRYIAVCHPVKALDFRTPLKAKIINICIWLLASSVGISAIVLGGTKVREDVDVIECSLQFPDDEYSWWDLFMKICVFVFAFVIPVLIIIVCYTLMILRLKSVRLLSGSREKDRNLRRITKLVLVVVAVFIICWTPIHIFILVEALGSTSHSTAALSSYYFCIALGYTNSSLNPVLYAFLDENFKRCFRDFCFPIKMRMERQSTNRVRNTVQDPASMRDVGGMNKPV

KOR [2] = assay type: cell-based, murine
MOR [3] = assay type: cell-based, murine
MOR [4] = assay type: cell-based, murine; remark: listed apart in the source
KOR [5] = assay type: cell-based, murine; remark: listed apart in the source
KOR [6] = assay type: cell-based, murine; remark: listed apart in the source
KOR [7] = assay type: cell-based, murine; remark: listed apart in the source
KOR [8] = experiment: mGs probe recruitment to KOR (TIR-FM); assay type: cell-based, murine; conditions: DynA 1 nM - 10 μM; Venus-mGs, HEK293, TIR-FM
Method: Live cell image series measuring protein recruitment to the plasma membrane were performed at 37°C using a Nikon Ti-E microscope equipped for through-the-objective TIR-FM with a temperature-, humidity- and CO2-controlled chamber (Okolab), objective heater, perfect focus system, and an Andor DU897 EMCCD camera. Images were obtained with a 100 × 1.49 NA Apo TIRF objective (Nikon) with solid-state lasers of 488, 561 and 647 nm (Keysight Technologies). Before imaging, receptors at the cell surface were labelled with M1 monoclonal FLAG antibody (1:1,000) conjugated to Alexa647 dye for 10 min at 37°C. Cells were then washed and live imaged in HBS imaging solution (Hepes buffered saline (HBS) with 135 mM NaCl, 5 mM KCl, 0.4 mM MgCl2,1.8 mM CaCl2, 20 mM Hepes, 5 mM d-glucose adjusted to pH 7.4 and 300–315 mOsmol/l). Agonists or antagonists were either added by bath application at concentrations indicated in the figure legends or by media perfusion. For the latter, an insert was 3D-printed and placed inside the imaging dish where it left a dead volume of about 300 μL. […]
For probing protein recruitment to the plasma membrane, HEK293 cells co-expressing the cytosolic protein of interest (mGsi, Nb33, or GRK2) and MOR or KOR were imaged using TIR-FM. […] Protein intensity during time lapse series was measured using ImageJ. […]

KOR [9] = assay type: cell-based, murine; remark: listed apart in the source

NES-Venus-mGsi (mini-G protein: Ras-like domain of Gs alpha with nine distal C-terminal residues from Gi alpha1) (designed binder)
maximum recruitment with etorphine, percent of that with DynA [1]: 67%

Cl.Cl.NC(N)=Nc1ccc2[nH]c3c(c2c1)C[C@@]1(O)[C@H]2Cc4ccc(O)c5c4[C@@]1(CCN2CC1CC1)[C@H]3O5 [5’GNTI, GNTI dihydrochloride]
reversal of DynA-induced mGsi recruitment by KOR antagonist (KOR [2]): rapid redistribution of the biosensor back to the cytoplasm

DAMGO, [D-Ala2, N-Me-Phe4, Gly5-ol]-Enkephalin acetate salt
I.A.(mGsi), intrinsic activity (maximal response) (MOR [3]): 1.00
mGsi/Nb33, ratio of intrinsic activities (MOR [3]): 1
I.A.(Nb33), intrinsic activity (maximal response) (MOR [4]): 1.00

C[C@@H](Cc1ccsc1)NC(=O)NC[C@H](Cc1ccc(O)cc1)N(C)C [PZM21]
mGsi/Nb33, ratio of intrinsic activities (MOR [3]): 2.60
I.A.(mGsi), intrinsic activity (maximal response) (MOR [3]; SEM): 0.70±0.02
I.A.(Nb33), intrinsic activity (maximal response) (MOR [4]; SEM): 0.27±0.05

Dynorphin A (1–17, DynA)
I.A.(mGsi), intrinsic activity (maximal response) (KOR [2]): 1.00
mGsi/Nb33, ratio of intrinsic activities (KOR [2]): 1
I.A.(Nb33), intrinsic activity (maximal response) (KOR [5]): 1.00
GRK2 recruitment in cells pre-exposed to pertussis toxin (KOR [6]): significant recruitment response
GRK2 accumulation at KOR-containing clusters (in words) (KOR [7]): specifically accumulated at the KOR-containing clusters
mGs recruitment in response to KOR activation (KOR [8]): not detectably recruited
recruitment of isolated C-terminal PH domain from GRK2 (GRK2-C-tail) (KOR [9]): similarly strong recruitment

CC[C@@H]1CN2CC[C@]3(Nc4cccc(OC)c4C3=O)[C@@H]2C[C@@H]1/C(=C\OC)C(=O)OC [MP, mitragynine pseudoindoxyl]
mGsi/Nb33, ratio of intrinsic activities (MOR [3]): 7.47
I.A.(mGsi), intrinsic activity (maximal response) (MOR [3]; SEM): 0.31±0.02
Nb33 recruitment by MOR (in words) (MOR [4]): without promoting detectable recruitment
I.A.(Nb33), intrinsic activity (maximal response) (MOR [4]; SEM): 0.04±0.05

Source: publication PMC7041944 (eLife, 2020)
